Test results from patent US6103709A (priority 1998, dated 2000).

Columns and labels:
rapid responses (VDRmem) = experiment: Antagonist function (summary classification); details: Yes/No, Tables 1 and 6
[1] = molecular target: T1, nuclear receptor for 1α,25(OH)2 D3 [VDRnuc] (Gallus gallus, UniProt O42392); experiment: Relative Competitive Index (steroid competition) assay, nuclear receptor VDRnuc; type: binding, chick; set-up: key to Nuclear 1α,25-D Receptor (RCI): % relative to 1α,25(OH)2D3 binding (RCI = 100%); details: for Binding to VDRnuc relative to 1α,25(OH)2 D3 (RCI): 1α,25(OH)2 D3 = 100%, FIG. 8: chick intestine mucosa; for Nuclear 1α,25-D Receptor (RCI): RCI of 1α,25(OH)2 D3 = 100
T1 construct: VDRnuc receptor preparation from chick intestine mucosa; from tissue; host or cells: chick intestinal mucosa
T1 sequence (O42392 1-451): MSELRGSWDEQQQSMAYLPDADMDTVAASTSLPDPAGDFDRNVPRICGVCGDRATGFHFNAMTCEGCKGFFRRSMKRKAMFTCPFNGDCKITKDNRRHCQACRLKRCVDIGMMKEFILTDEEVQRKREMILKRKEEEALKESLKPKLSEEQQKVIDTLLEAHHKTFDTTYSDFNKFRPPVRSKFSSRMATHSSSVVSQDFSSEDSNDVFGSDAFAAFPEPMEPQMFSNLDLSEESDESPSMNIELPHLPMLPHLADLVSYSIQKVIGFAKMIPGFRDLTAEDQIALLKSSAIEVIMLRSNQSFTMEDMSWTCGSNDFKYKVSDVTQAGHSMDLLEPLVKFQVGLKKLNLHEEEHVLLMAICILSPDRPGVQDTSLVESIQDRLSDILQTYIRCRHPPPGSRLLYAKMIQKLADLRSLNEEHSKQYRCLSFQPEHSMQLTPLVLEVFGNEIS
Protocol: The ability of analogs to mediate genomic responses are directly determined by the ability of the analog in question to bind to the nuclear receptor for 1α,25(OH)2 D3 [VDRnuc ]. This ability is detected by the assay measuring Relative Competitive Index (RCI).
The assay is based upon the principles of a steroid competition assay. A fixed amount of [^3 H]1α,25(OH)2 D3 is mixed with increasing amounts of competitive analogs or the natural hormone, 1α,25(OH)2 D3, and incubated with a VDRnuc receptor preparation from chick intestine mucosa.
Ligand Receptor Competition Assay
This example describes a ligand receptor competitive assay used for determination of an analog's relative ability to bind to VDRnuc expressed as relative competitive index (RCI).
The relative affinity of nonradioactive 1α,25(OH)2 D3 and each analog to compete with [^3 H]1α,25(OH)2 D3 for binding to the VDRnuc of NB4 cells was carried out in vitro. The NB4 cells were collected from a fast growing stage and the cellular VDRnuc of 1α,25(OH)2 D3 were extracted from KTED buffer containing 10 mM Tris-HCl, pH 7.4, 300 mM KCl, 1 mM EDTA and 5 mM DTT. After sonication, the cell extract was further centrifuged at 500× g for 10 min. The supernatant was collected for use in a ligand-receptor binding assay.
In this assay, increasing concentrations (10^-10 to 10^-6 M) of nonradioactive 1α,25(OH)2 D3 or the tested analogs were incubated with NB4 cell extracts in the presence of a fixed saturating amount of 1 pmole of [^3 H]1α,25(OH)2 D3. The reciprocal of the percentage of maximal binding of [^3 H]1α,25(OH)2 D3 was then calculated and plotted as a function of the relative analog concentration versus [^3 H]1α,25(OH)2 D3. […] The competitive index value for each analog is then normalized to the competitive index value of the […], thereby generating the value of Relative Competitive Index (RCI) where the RCI for 1α,25(OH)2 D3 is defined as 100%.
The full description of the assay is found in Methods in Enzymology: Vitamins and Co-Enzymes, Vol. 67, 494-500 , Academic Press, NY(1980); Biochem. Biophys. Res. Commun., 91: 827-834 (1979); and Endocrinology, 139(2): 457-465 (1998).

In the case of C=C1/C(=C\C=C2/CCC[C@]3(C)[C@@H]([C@H](C)Cc4cccc(O)c4)CC[C@@H]23)C[C@@H](O)C[C@@H]1O [DE], the Antagonist (rapid responses (VDRmem)) is reported as “No”, the “Binding to VDRnuc relative to 1α,25(OH)2 D3 (RCI)” value [1] is reported as 29% and the “Nuclear 1α,25-D Receptor (RCI)” value [1] is reported as 29.
For C=C1/C(=C\C=C2/CCC[C@]3(C)[C@@H]([C@H](C)Cc4ccc(O)cc4)CC[C@@H]23)C[C@@H](O)C[C@@H]1O [DF], the Antagonist (rapid responses (VDRmem)) was “No”, the “Binding to VDRnuc relative to 1α,25(OH)2 D3 (RCI)” value [1] was 5% and the “Nuclear 1α,25-D Receptor (RCI)” value [1] was 5.
With C=C1/C(=C\C=C2/CCC[C@]3(C)[C@@H]([C@H](C)Cc4cccc(C(C)(C)O)c4)CC[C@@H]23)C[C@@H](O)C[C@@H]1O [EV] the Antagonist (rapid responses (VDRmem)) was “No”, the “Binding to VDRnuc relative to 1α,25(OH)2 D3 (RCI)” value [1] was 62% and the “Nuclear 1α,25-D Receptor (RCI)” value [1] was 62.
In the case of CC1=C(/C=C\C2=CCC[C@@]3(C)[C@@H]2CC[C@@H]3[C@H](C)CCCC(C)(C)O)C[C@@H](O)C[C@@H]1O [GF], the Antagonist (rapid responses (VDRmem)) is reported as “No” and the “Nuclear 1α,25-D Receptor (RCI)” value [1] is reported as 2.
For C=C1/C(=C\C=C2/CCC[C@]3(C)[C@@H]([C@H](C)CCCC(C)(C)O)CC[C@@H]23)C[C@@H](O)C[C@H]1O [HL], the Antagonist (rapid responses (VDRmem)) was “Yes and blocks or inhibits the action of agonist for rapid responses”.
For C=C1/C(=C\C=C2/CCC[C@]3(C)[C@@H]([C@H](C)C=C=CC(C)(C)O)CC[C@@H]23)C[C@@H](O)C[C@@H]1O [HQ], the Antagonist (rapid responses (VDRmem)) was “No” and the “Nuclear 1α,25-D Receptor (RCI)” value [1] was 21.
C=C1/C(=C\C=C2/CCC[C@]3(C)[C@@H]([C@H](C)C=C=CC(C)(C)O)CC[C@@H]23)C[C@@H](O)C[C@@H]1O [HR] was tested, and the Antagonist (rapid responses (VDRmem)) was “No”, the “Binding to VDRnuc relative to 1α,25(OH)2 D3 (RCI)” value [1] was 52% and the “Nuclear 1α,25-D Receptor (RCI)” value [1] was 52.
For C[C@H](CCCC(C)(C)O)[C@H]1CC[C@H]2C3=CC=C4C[C@@H](O)C[C@H](O)[C@]4(C)[C@H]3CC[C@]12C [JM], the Antagonist (rapid responses (VDRmem)) was “No” and the “Nuclear 1α,25-D Receptor (RCI)” value [1] was 0.1.
C[C@H](CCCC(C)(C)O)[C@H]1CC[C@H]2C3=CC=C4C[C@@H](O)C[C@H](O)[C@@]4(C)[C@@H]3CC[C@]12C [JN] was tested, and the Antagonist (rapid responses (VDRmem)) was “No” and the “Nuclear 1α,25-D Receptor (RCI)” value [1] was 1.8.
In the case of C[C@H](CCCC(C)(C)O)[C@H]1CC[C@H]2C3=CC=C4C[C@@H](O)C[C@H](O)[C@@]4(C)[C@H]3CC[C@]12C [JO], the Antagonist (rapid responses (VDRmem)) is reported as “No” and the “Nuclear 1α,25-D Receptor (RCI)” value [1] is reported as 0.2.
For C[C@H](CCCC(C)(C)O)[C@H]1CC[C@H]2C3=CC=C4C[C@@H](O)C[C@H](O)[C@]4(C)[C@@H]3CC[C@]12C [JP], the Antagonist (rapid responses (VDRmem)) was “No” and the “Nuclear 1α,25-D Receptor (RCI)” value [1] was 0.3.
For CC1=C(C=C=C2CCC[C@]3(C)[C@@H]([C@H](C)CCCC(C)(C)O)CC[C@@H]23)C[C@@H](O)C[C@@H]1O [JV], the Antagonist (rapid responses (VDRmem)) was “No” and the “Nuclear 1α,25-D Receptor (RCI)” value [1] was 1.6.
In the case of CC1=C(C=C=C2CCC[C@]3(C)[C@@H]([C@H](C)CCCC(C)(C)O)CC[C@@H]23)C[C@@H](O)C[C@@H]1O [JW], the Antagonist (rapid responses (VDRmem)) is reported as “No” and the “Nuclear 1α,25-D Receptor (RCI)” value [1] is reported as 2.6.
C=C1CC[C@H](O)C/C1=C/C=C1\CCC[C@]2(C)[C@@H]([C@H](C)Cc3ccc(O)cc3)CC[C@@H]12 [JX] was tested, and the Antagonist (rapid responses (VDRmem)) was “No” and the “Nuclear 1α,25-D Receptor (RCI)” value [1] was 0.002.
With C=C1CC[C@H](O)C/C1=C/C=C1\CCC[C@]2(C)[C@@H]([C@H](C)Cc3cccc(O)c3)CC[C@@H]12 [JY] the Antagonist (rapid responses (VDRmem)) was “No” and the “Nuclear 1α,25-D Receptor (RCI)” value [1] was 0.001.
With C=C1/C(=C\C=C2/CCC[C@]3(C)[C@@H]([C@H](C)CCCC(C)(C)O)C[C@@H]4C[C@@]243)C[C@@H](O)C[C@@H]1O [LO] the Antagonist (rapid responses (VDRmem)) was “No”, the “Binding to VDRnuc relative to 1α,25(OH)2 D3 (RCI)” value [1] was 98% and the “Nuclear 1α,25-D Receptor (RCI)” value [1] was 98. The “VDRnuc binding / nuclear response (in words)” value ([1]; compared with 1α,25(OH)2 D3) was “as active in generating nuclear responses as is the 1α,25(OH)2 D3”.
